# Experiments:
# TEAD central pocket = target: TEAD central pocket; design: method as in PMID 26592798; conditions: read-out: ITC Kd; cited from earlier work
# hTEAD4 (nonacylated) [1] = target: T1, hTEAD4 (nonacylated) (Homo sapiens, UniProt Q15561); assay: Thiol conjugation assay (CPM probe); type: binding; conditions: for Inhibition of the CPM fluorescence signal increase: assay validation with known central pocket binders; for fold reduction of TEAD binding in the thiol conjugation assay: relative to 19
# T1 construct: N-terminal His6-tagged hTEAD4^217–434 was subcloned; made in house; host or cells: Escherichia coli BL21-CodonPlus (DE3)-RIPL
# T1 sequence (Q15561 217-434): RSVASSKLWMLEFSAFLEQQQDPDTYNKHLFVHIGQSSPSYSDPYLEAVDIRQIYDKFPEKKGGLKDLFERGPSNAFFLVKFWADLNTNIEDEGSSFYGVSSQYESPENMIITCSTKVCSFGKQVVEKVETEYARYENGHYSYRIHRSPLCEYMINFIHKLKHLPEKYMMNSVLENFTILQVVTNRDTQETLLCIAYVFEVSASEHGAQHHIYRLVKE
# Procedure: To serially diluted solutions of the tested compounds in 5 μL of assay buffer [HEPES (25 mM) and NaCl (150 mM) pH 6.5], freshly prepared 5 μL of 0.45 μM protein solution was added and incubated at room temperature for 10 min, followed by addition of 5 μL of 0.45 μM CPM solution, giving a 15 μL final assay volume, 150 nM protein, and 150 nM CPM. The assay plate was shaken at room temperature for 1 h before measuring the fluorescence (Ex/Em: 380/470 nm). Compound 19 was used as an internal standard to determine 100% inhibition.
# A library of 14,000 compounds was screened in 1536-well plates using pH 6.5 MES buffer. To the preincubated solution of nonacylated hTEAD4 (0.15 μM final concentration) and compound solution (12.5 μM final concentration), CPM (0.15 μM final concentration) was added, and the assay plates were incubated at room temperature for 50 min before measuring the fluorescence (Ex/Em: 360/465 nm) using Spectramax Paradigm (Molecular Devices). Z′ = 0.6–0.8 (10-plates).
# [2] = design: method as in PMID 21164073; conditions: acidic 2-OH group; cited from earlier work
# hTEAD4 (nonacylated) [3] = target: T1, hTEAD4 (nonacylated); assay: Differential scanning fluorimetry; type: binding; conditions: 20 μM protein, 80 μM inhibitor
# Procedure: Nonacylated hTEAD4 (20 μM) was incubated in the absence or presence of inhibitors (80 μM) at 25 °C for 10 min. Then, SYPRO orange (Sigma-Aldrich) at a final concentration of 5× was added and the mixture was heated at a ramp rate of 1 °C/min in a qPCR machine (Applied Biosystems). The derivative of the SYPRO orange fluorescent intensity is plotted as a function of temperature.
# hTEAD4 (nonacylated) [4] = target: T1, hTEAD4 (nonacylated); assay: FP-based competitive binding assay with FITC-palmitate tracer; conditions: relative to 19; for fold increase in the IC50 values: said of the IC50 values of both assays
# Procedure: To serially diluted solution of the tested compounds in 5 μL assay buffer [HEPES (25 mM) and NaCl (150 mM), pH 6.5 buffer], freshly prepared 5 μL of 0.15 μM protein solution was added and incubated at room temperature for 10 min followed by 5 μL of 30 nM FITC-palmitate solution, giving 15 μL final assay volume, 50 nM protein, and 10 nM tracer. The assay plate was shaken at room temperature for 1 h before measuring the FP (Ex/Em: 485/535 nm).
# hTEAD4 (nonacylated) [5] = target: T1, hTEAD4 (nonacylated); assay: Saturation binding of FITC-palmitate (FP); conditions: 10 nM tracer
# Procedure: To a serially diluted solution of nonacylated hTEAD4 in 12 μL of assay buffer [HEPES (25 mM) and NaCl (150 mM) pH 6.5], 8 μL of 25 nM FITC-palmitate solution was added, giving 20 μL final assay volume with a 10 nM tracer. The assay plate was incubated at room temperature for 1 h before measuring FP (Ex/Em: 485/535 nM).
# hTEAD4 (nonacylated) [6] = target: T1, hTEAD4 (nonacylated); assay: Whole-protein ESI–MS of covalent modification; type: binding; conditions: 8 equiv of compound, 1 h, rt
# Procedure: The protein solution (1 μL 5 μM) was injected to UPLC-MS (ThermoScientific_UltiMate 3000 LC coupled to a Velos Pro MS) through a desalting column (MassPREP Online desalting, 2.1 × 10 mm). For reactions, 1 μM of the protein was incubated at room temperature for 1 h with 8 equiv of the compound in HEPES (25 mM) and NaCl (150 mM) pH 6.5 buffer. Then, the mixture was centrifuged before injecting 5 μL. The deconvolution of m/z values was performed using Promass Xcalibur software.
# [7] = target: T2, hTEAD4 (nonacylated) with human YAP50–100 (Homo sapiens, UniProt Q15561); assay: FP-based competitive TEAD–YAP interaction assay (FITC-hYAP50–100); type: binding; conditions: versus 19
# T2 construct: N-terminal His6-tagged hTEAD4^217–434 was subcloned; made in house; host or cells: Escherichia coli BL21-CodonPlus (DE3)-RIPL (TEAD4); solid-phase synthesis (YAP peptide)
# T2 sequence (Q15561 217-434): as above
# Procedure: All the TEAD–YAP binding experiments were performed in phosphate-buffered saline (PBS) (pH 7.5).
# To serially diluted solution of the tested compounds in 5 μL of PBS, freshly prepared 5 μL of protein solution was added and incubated at room temperature for 10 min followed by addition of 5 μL of FAM-YAP^50–100 solution. The assay plate was shaken at room temperature for 1 h before measuring the FP (Ex/Em: 485/535 nm). Final protein and FAM concentrations are as follows (FAM/protein): hTEAD4 (nonacylated): 2 nM/5 nM, hTEAD4 (acylated): 3 nM/15 nM, mTEAD4_Cys360Ser: 10 nM/50 nM, and mTEAD4_Cys360Ala: 10 nM/50 nM.
# [8] = Assay media stability (HPLC); type: physicochemical; conditions: MES buffer, pH 6.5, 1 h, rt
# Procedure: The compounds were incubated in MES (25 mM), pH 6.5 buffer or HEPES (25 mM) and NaCl (150 mM) pH 6.5 buffer for an hour at room temperature before injecting into a reverse-phase HPLC system (ThermoScientific_Ultimate 3000) equipped with a C18 column (2/50 Nucleodur C18 gravity 1.8 μm von Macherey-Nagel).
# mTEAD4 (nonacylated) = target: T3, mTEAD4 (nonacylated) (Mus musculus, UniProt Q62296); assay: 1H–15N HSQC NMR; type: binding; conditions: 0.5 mM compound, versus DMSO
# T3 construct: made in house
# T3 sequence (Q62296 210-427 limits assumed): as the sequence (Q15561 217-434) above, with V3I, Q19R, G35S, A48T, D67E, E91D, S96A, S142L counted along it
# Procedure: The ^13C/^15N-labeled mTEAD4 was prepared following a protocol established earlier,[45] and the protein was deacylated as described above for hTEAD4. ^1H–^15N HSQC spectra in the presence of DMSO or the test compound (0.5 mM) were collected at 37 °C on a Bruker 600 MHz magnet equipped with a cryoprobe in 20 mM HEPES, pH 7.3 buffer containing 150 mM NaCl and 1 mM DTT. The spectra were processed and overlaid.
# TEAD target gene ANKRD1 = assay: RT-qPCR of TEAD target gene expression in HEK293 cells; type: cell-based; conditions: 6 h
# Procedure: HEK293 cells were treated with DMSO or the indicated compound for the indicated duration. RNA was extracted using the RNeasy Plus Mini Kit (QIAGEN, Hilden, Germany) following the manufacturer’s procedure. DNA was removed on the column by DNase digestion with the RNase-free DNase Set (QIAGEN, Hilden, Germany) according to the manufacturer’s instructions. Following the manufacturer’s protocol, cDNA templates were synthesized from 700 ng total RNA using the QuantiTect Reverse Transcription Kit (QIAGEN, Hilden, Germany).
# The expression levels of the TEAD target gene ANKRD1 was assessed by real-time quantitative PCR. A total of 100 ng of cDNA was amplified using 500 nM gene-specific primers and SsoAdvanced Universal SYBR Green Supermix (Bio-Rad Laboratories, Feldkirchen, Germany) in a total volume of 10 μL for 50 cycles. All measurements were performed in both technical and biological triplicates using a CFX96 Touch Real-Time PCR Detection System (Bio-Rad Laboratories, Feldkirchen, Germany).
# The sequences of primers for ANKRD1 were forward 5′-[…]-3′ and reverse 5′-[…]-3′. The sequences of primers for GAPDH were forward 5′-[…]-3′ and reverse 5′-[…]-3′.
structure (smiles),measurement,setting,value
"O=C(O)c1ccccc1Nc1cccc(C(F)(F)F)c1 [Compound 1, flufenamic acid, reference compound]",Kd,TEAD central pocket,73 µM
same,Inhibition of the CPM fluorescence signal increase,hTEAD4 (nonacylated) [1],inhibited the signal increase in a dose-dependent manner
"CC(C)C(Nc1ccccc1)c1oc(CO)cc(=O)c1O (stereo not shown) [Compound 31, 3-Hydroxy-6-(hydroxymethyl)-2-(2-methyl-1-(phenylamino)propyl)-4H-pyran-4-one]",fold reduction of TEAD binding in the thiol conjugation assay,hTEAD4 (nonacylated) [1],100 fold
"O=c1cc(CO)oc(C(Nc2ccccc2)C2CCCCC2)c1O (stereo not shown) [Compound 30, 2-(Cyclohexyl(phenylamino)methyl)-3-hydroxy-6-(hydroxymethyl)-4H-pyran-4-one]",fold reduction of TEAD binding in the thiol conjugation assay,hTEAD4 (nonacylated) [1],100 fold
O=c1cc(CO)occ1O [kojic acid],pKa,[2],7.9
"O=c1cc(CO)oc(C(Nc2ccccn2)c2ccc(Br)cc2)c1O (stereo not shown) [Compound 42, 2-((4-Bromophenyl)(pyridin-2-ylamino)methyl)-3-hydroxy-6-(hydroxymethyl)-4H-pyran-4-one]",ΔTm at 80 µM,hTEAD4 (nonacylated) [3]; read-out: Tm shift,-2 °C
"O=c1cc(CO)oc(C(Nc2nc3ccccc3[nH]2)c2ccccc2)c1O (stereo not shown) [Compound 28, 2-(((1H-Benzo[d]imidazol-2-yl)amino)(phenyl)methyl)-3-hydroxy-6-(hydroxymethyl)-4H-pyran-4-one]",fold increase in the IC50 values,hTEAD4 (nonacylated) [4],more than 20 fold
"O=c1cc(CO)oc(C(Nc2nccs2)c2ccccc2)c1O (stereo not shown) [Compound 27, 3-Hydroxy-6-(hydroxymethyl)-2-(phenyl(thiazol-2-ylamino)methyl)-4H-pyran-4-one]",Tm shift,hTEAD4 (nonacylated) [3],did not induce any change
same,fold increase in the IC50 values,hTEAD4 (nonacylated) [4],more than 20 fold
"CCCCCCCCCCCCCCCC(=O)NCCCOCCOCCOCCCNC(=S)Nc1ccc(-c2c3ccc(=O)cc-3oc3cc(O)ccc23)c(C(=O)O)c1 [Compound S4, 2-(6-Hydroxy-3-oxoi-3H-xanthen-9-yl)-5-(3-(15-oxo-4,7,10-trioxa-14-azatriacontyl)thioureido)benzoic Acid]",Kd,hTEAD4 (nonacylated) [5],0.028 µM
"O=C(CCl)c1ccccc1Nc1cccc(C(F)(F)F)c1 [Compound 3, reference compound]",Inhibition of the CPM fluorescence signal increase,hTEAD4 (nonacylated) [1],inhibited the signal increase in a dose-dependent manner
"COc1c(C(Nc2ccccc2)c2ccccc2)oc(CO)cc1=O (stereo not shown) [Compound 45, 6-(Hydroxymethyl)-3-methoxy-2-(phenyl(phenylamino)methyl)-4H-pyran-4-one]",modification of the protein (whole-protein ESI–MS),hTEAD4 (nonacylated) [6],modification of TEAD was not observed
same,fold lower activity in TEAD–YAP interaction assay,[7],> 100 fold
same,stability in assay medium,[8],stable
same,Tm shift,hTEAD4 (nonacylated) [3],did not induce any change
same,effect on 1H–15N HSQC spectrum,mTEAD4 (nonacylated),did not induce a significant change
same,reduction of the mRNA level of ANKRD1 compared to the DMSO control,TEAD target gene ANKRD1,only a minimal effect
same,activity in the thiol conjugation assay,hTEAD4 (nonacylated) [1],inactive
"O=c1cc(CO)oc(C(Nc2ccccc2)c2ccccn2)c1O (stereo not shown) [Compound 40, 3-Hydroxy-6-(hydroxymethyl)-2-((phenylamino)(pyridin-2-yl)methyl)-4H-pyran-4-one]",fold lowering of inhibitory activity in the FP assay,hTEAD4 (nonacylated) [4],2–3 fold
"O=C(O)c1cccnc1Nc1cccc(C(F)(F)F)c1 [Compound 2, niflumic acid, reference compound]",Kd,TEAD central pocket,28 µM
same,Inhibition of the CPM fluorescence signal increase,hTEAD4 (nonacylated) [1],inhibited the signal increase in a dose-dependent manner
"CCCCCCCCCCCCCCCC(=O)O [palmitic acid, reference compound]",Inhibition of the CPM fluorescence signal increase,hTEAD4 (nonacylated) [1],inhibited the signal increase in a dose-dependent manner
"O=c1cc(CO)oc(C(Nc2ncccn2)c2ccccc2)c1O (stereo not shown) [Compound 26, 3-Hydroxy-6-(hydroxymethyl)-2-(phenyl(pyrimidin-2-ylamino)methyl)-4H-pyran-4-one]",fold increase in the IC50 values,hTEAD4 (nonacylated) [4],more than 20 fold
"COc1c(C(Nc2ccccn2)c2ccccc2F)oc(CO)cc1=O (stereo not shown) [Compound 46, 2-((2-Fluorophenyl)(pyridin-2-ylamino)methyl)-6-(hydroxymethyl)-3-methoxy-4H-pyran-4-one]",activity in the thiol conjugation assay,hTEAD4 (nonacylated) [1],inactive
"O=c1cc(CO)oc(CNc2ccccc2)c1O [Compound 32, 3-Hydroxy-6-(hydroxymethyl)-2-((phenylamino)methyl)-4H-pyran-4-one]",fold reduction of TEAD binding in the thiol conjugation assay,hTEAD4 (nonacylated) [1],100 fold

# Source: publication PMC7586386, “Discovery of Covalent Inhibitors Targeting the Transcriptional Enhanced Associate Domain Central Pocket” (Journal of Medicinal Chemistry, 2020)
